Reference: paper PMC5859250, “Contribution of transformation products towards the total herbicide toxicity to tropical marine organisms” (Scientific Reports, 2018)
In brackets after ≈: the same amount, converted by molar mass. Entries after “also recorded” stand apart in the source; their conditions may differ.

How the values were obtained:
Symbiodinium sp. = test: Microalgal PAM fluorometry assay, inhibition of ∆F/Fm′ (24 h, 96-well plate); type: cell-based; conditions: for LOEC, effect on ∆F/Fm′ / NOEC, effect on ∆F/Fm′: pure transformation product, ANOVA p < 0.05
From the text: Microalgae play a critical role in the marine food web and have been used in a number of sensitive assays for the assessment of toxicity of both herbicides and their transformation products[13],[16],[60]. High throughput 96 well plate designs allow for increased replication and a wide range of concentrations especially when paired with pulse amplitude modulation (PAM) fluorometry[50],[61]. PAM fluorometry measures chlorophyll fluorescence and can be used to calculate inhibitions of effective quantum yield ∆F/Fm′, which is proportional to reduced photosynthetic efficiency[62] and growth in microalgae[63] and can be plotted against toxicant concentrations to derive concentrations that inhibit ∆F/Fm′ by 10, 20 and 50% (IC10, IC20 and IC50). In the present study the green algae (Dunaliella sp.) and coral symbiont (Symbiodinium sp.) were exposed to herbicides and aged herbicide solutions for 24 h in a 96-well plate format. A Maxi-Imaging-PAM (I-PAM) (Walz, GmbH Germany) was used to measure inhibition of ∆F/Fm′ using settings provided previously[36] and below.
Symbiodinium cells were isolated from coral by air blasting branches of Acropora tenuis colonies collected (collected under the permit G10-33440.1) at 2–5 m depth in Nelly Bay, Magnetic Island, GBR[36]. Symbiodinium cells were inoculated into sterile IMK growing media, the culture purified, DNA extracted, and Clade C1 identified as published previously[64],[65]. Cultures were maintained at 26 °C, 60 µE PAR, 14:10 light:dark photoperiod inside environmental chambers (Steridium e500). The Dunaliella sp. (CS-353) (Chlorophyceae) was obtained from the CSIRO Collection of Living Microalgae (CCLM). The algae was subcultured and grown in F2 media. For the toxicology assays, an exponentially growing culture was employed[63] and density adjusted by hemocytometry under 10× magnification. Day 7 sub-cultures were used throughout the experiment.
Herbicide solutions were delivered into each treatment plate using a Perkin Elmer Janus liquid handling system. Each well of the black 96-well plates (Perkin Elmer) received 100 µl herbicide solution as well as 100 µl of algal suspension (added via multi-channel pipette) and the solution was gently mixed. […] Each plate included a 3 µg l^−1 positive diuron control (n = 4) to confirm consistent sensitivities among the replicate algal subcultures. Treatments positions were randomised across the plates in duplicate[50],[61],[66]. Symbiodinium culture plates were incubated over a 12:12 h light:dark cycle at 26 °C and 60–70 µmol photons m^−2 s^−1 and Dunaliella sp. Plates incubated at: 26 °C and 130 µmol photons m^−2 s^−1. Microalgae were exposed for 24 h prior to PAM measurements. Samples were subjected to the 50 µmol photons m^−2 s^−1 actinic light for 1 min prior to measurement in the Maxi-IPAM (Actinic light = 1, ML = 10, ML frequency = 8, gain = 2 and damping = 1).
The model was constrained by applying a lower limit of 0% inhibition and all curves were tested for normality of the residuals and a replicate test was applied to assess the goodness of fit[36]. The probability that ICX values generated by the logistic curves were statistically different between parent and aged herbicide solutions was tested by applying the F test in Graph Pad Prism v6. ICXs were considered different when p < 0.05. Where inhibition data could not be fitted to logistic curves, one-way analysis of variance (ANOVA) was performed to identify treatments which caused significant (p < 0.05) inhibition comparison with control treatments (NCSS v9, Utah, USA). The larval prawn experimental data was arcsine square root transformed prior to statistical analysis.

[1] = Herbicide degradation in outdoor tanks with coastal seawater and sediment (330 d); type: physicochemical; conditions: day 330, in tank of the parent herbicide, measured or estimated
From the text: Photosystem II herbicides/transformation product solutions were produced by adding herbicides to seawater within separate 120 l outdoor fibreglass tanks, in the presence of natural coastal sediments (further details can be found in Mercurio 2016)[36]. […] The tanks used were previously described in Mercurio et al.[8], with treatment water being partially shaded (70%) and exposed to a maximum of 700 µmol photons m^−2s^−1 over the course of the experiment. The application of a natural diurnal light regime and coastal sediment were previously shown to increase the rates of PSII herbicide degradation and represent more natural conditions than those used in standard degradation tests[8],[36]. Evaporation was minimised with loose-fitting clear acrylic lids and the water continuously circulated using Turbelle Nanostream pumps. Prior to every sampling period evaporation losses were replenished with equal volumes of MilliQ water. The average temperature was 25.7 °C with a range of 15.6–36.6 °C over the course of the study. Unfiltered coastal seawater and sediments were collected from the intertidal zone adjacent to the Australian Institute of Marine Science (19°16′S, 147°03′E), Cape Cleveland, QLD. The sediments were prepared one week prior to use by sieving (>2 mm removed) and thorough mixing. Each tank contained 5 kg of sediment. Physical and chemical information on the seawater and sediments used the treatments can be found in SOM Table 1.
The 20 tanks included replicates for control seawater (n = 4) and the PSII herbicides diuron (n = 4), atrazine (n = 3), simazine (n = 3), hexazinone (n = 3), and ametryn (n = 3). Herbicide treatments and replicates were randomized among tanks. The herbicides were purchased from Sigma Aldrich (>95% purity) and were introduced at ~1 mg l^−1 to enable direct chemical and toxicological testing of the herbicide transformation product mixtures without additional concentration steps. […] The same concentration was used in the controls. Sample collection, internal standard addition, and analytical techniques (HPLC-MS/MS using an AB/Sciex API5500Q mass spectrometer equipped with an electrospray interface and coupled to a Shimadzu Prominence HPLC system) were as previously reported[7],[36]. […] Individual replicates were analysed using HPLC/TripleTOF mass spectrometry for possible transformation products as described in Mercurio 2016[36]. Briefly, 0.2 µm-filtered samples were directly injected into an ABSciex API5600+ Triple TOF mass spectrometer (ABSciex, Concord, Ontario, Canada) equipped with an electrospray (TurboV) interface coupled to a Shimadzu Nexera HPLC system (Shimadzu Corp., Kyoto, Japan). Separation was achieved using a 4 micron 50 × 2.0 mm Phenomenex Synergi Fusion RP column (Phenomenex, Torrance, CA) run at 45 °C, and a flow rate of 0.4 mL min^−1 with a linear gradient starting at 8% B for 0.5 minutes, ramped to 100% B in 8 minutes then held at 100% for 2.0 minutes followed by equilibration at 8% B for 2.5 minutes (A = 1% methanol in HPLC grade water, B = 95% methanol in HPLC grade water, both containing 0.1% acetic acid). The mass spectrometer was operated in positive ion SWATH mode. Briefly this mode comprises a TOF scan of 50 millisecond duration followed by small segments of the mass range being transmitted through the quadrupole, fragmented in the collision cell and full TOF mass spectra taken of the transformation products. Data from these experiments was examined using the Masterview software (ABSciex).
Potential transformation products identified using TOF mass spectrometry and other potential transformation products identified from literature were then re-examined by HPLC/ triple quadrupole mass spectrometry using multiple reaction monitoring. Product ions used were as identified from QTOF data or from literature references and parameters such as collision energy optimised by repeated injections of samples for compounds detected. […]

Row | SMILES | IC20 (Symbiodinium sp.; 24 h, read-out: IC20 parent (inhibition of ∆F/Fm′ by 20%)) [µg/mL] | IC10 parent (inhibition of ∆F/Fm′ by 10%) (Symbiodinium sp.; Symbiodinium sp., 24 h, pure compound) | Inhibition of ∆F/Fm′ (Symbiodinium sp.; Symbiodinium sp., evident at 84 µg l^−1) | LOEC, effect on ∆F/Fm′ (Symbiodinium sp.; Symbiodinium sp.) [µg/L] | NOEC, effect on ∆F/Fm′ (Symbiodinium sp.; Symbiodinium sp.) [µg/L] | Transformation product concentration [1] [µg/L] | Inhibition of ∆F/Fm′ (in words) (Symbiodinium sp.; Symbiodinium sp., concentrations up to 273 µg l^−1) | Inhibition of ∆F/Fm′ (Symbiodinium sp.; Symbiodinium sp., 458 µg l^−1) [%] | Transformation product concentration ([1]; listed as Desisopropyl Atrazine) [µg/L]
1 | CC(C)Nc1nc(N)nc(Cl)n1 [DEA, desethylatrazine] | 0.218 (≈ 1.16 µM) | 103 (93–115) µg l^−1 | 9–35% | 83.68 | 55.63 | 36 | – | – | –
2 | Nc1ccc(Cl)c(Cl)c1 [3,4-DCA, 3,4-dichloroaniline] | – | – | – | >273.41 | 273.41 | 2.1 | no significant inhibition; also recorded: did not inhibit ∆F/Fm′ | – | –
3 | CCNc1nc(N)nc(Cl)n1 [DIA, desisopropylatrazine] | – | – | – | >458.31 | 458.31 | – | – | < 8 | 5.1
